In patent US5980913A, “Peptides having immunomodulatory activity” (Biochem Pharma, Inc., priority 1994, dated 1999):
Where a SMILES comes first, the peptide text is derived from it. [ ]: non-standard residue; d: D form.

System: blood cell subsets (cell surface antigens)
Experiment: In vivo/ex vivo immunophenotyping in the blood, mice treated 4 consecutive days, blood taken on day 5
Design: species or system C57BL/6 mice
Method: C57BL.backslash.6 mice are treated with 0, 50, 100, 200, and 300 mg/kg of drug (in saline) for 4 consecutive days. Blood is taken by cardiac puncture on day 5, and the lymphocytes are isolated from spleen in the following manner:
1. Immunophenotyping (blood and spleen)
Cell immunophenotyping is performed on blood and spleen. The following cell surface antigens are analyzed:
CD4 (T helper/inducer, binds class II-restricted T cells);
CD8 (cytotoxic T cells, CTL adhesion);
MAC-1 (monocyte/macrophage);
NK (natural killer cells);
CD45 (all leukocytes, protein tyrosine phosphatase).

Q: What does the source list for `NCCCC[C@@H](N)C(=O)N[C@@H](CC(N)=O)C(=O)N1CCC[C@H]1C(=O)N[C@@H](Cc1ccc(O)cc1)C(=O)O` [PEPTIDE #5, H-(D-Lys)-Asn-Pro-Tyr-OH] (H-[dK]NPY-OH)?
A: Ly5(B) cell subset, relative percentage, MEAN (100 mg/kg, first assay): 58.73; NK+ CD3+ cell subset, relative percentage, MEAN (100 mg/kg, first assay): 2.43; NK+ CD3- cell subset, relative percentage, MEAN (100 mg/kg, first assay): 6.00; NK- CD3+ cell subset, relative percentage, MEAN (100 mg/kg, first assay): 33.58; NK- CD3- cell subset, relative percentage, MEAN (100 mg/kg, first assay): 57.95; TCR(T) cell subset, relative percentage, MEAN (100 mg/kg, first assay): 32.23; CD4+ CD8+ cell subset, relative percentage, MEAN (100 mg/kg, second assay): 0.33; CD4+ CD8- cell subset, relative percentage, MEAN (100 mg/kg, second assay): 25.00; CD4+ CD11b+ cell subset, relative percentage, MEAN (100 mg/kg, second assay): 0.50; CD4+ CD11b- cell subset, relative percentage, MEAN (100 mg/kg, second assay): 21.58; CD4- CD8+ cell subset, relative percentage, MEAN (100 mg/kg, second assay): 6.80; CD4- CD8- cell subset, relative percentage, MEAN (100 mg/kg, second assay): 67.83; CD4- CD11b+ cell subset, relative percentage, MEAN (100 mg/kg, second assay): 10.28; CD4- CD11b- cell subset, relative percentage, MEAN (100 mg/kg, second assay): 67.65; CD45+ CD4+ cell subset, relative percentage, MEAN (100 mg/kg, second assay): 22.70; CD45+ CD4- cell subset, relative percentage, MEAN (100 mg/kg, second assay): 68.45; CD45+ CD8+ cell subset, relative percentage, MEAN (100 mg/kg, second assay): 7.05; CD45+ CD8- cell subset, relative percentage, MEAN (100 mg/kg, second assay): 85.00; CD45- CD4+ cell subset, relative percentage, MEAN (100 mg/kg, second assay): 2.23; CD45- CD4- cell subset, relative percentage, MEAN (100 mg/kg, second assay): 6.63; CD45- CD8+ cell subset, relative percentage, MEAN (100 mg/kg, second assay): 0.10; CD45- CD8- cell subset, relative percentage, MEAN (100 mg/kg, second assay): 7.83; Ly5(B) cell subset, relative percentage, MEAN (100 mg/kg, second assay): 56.10; NK+ CD3+ cell subset, relative percentage, MEAN (100 mg/kg, second assay): 4.68; NK+ CD3- cell subset, relative percentage, MEAN (100 mg/kg, second assay): 7.58; NK- CD3+ cell subset, relative percentage, MEAN (100 mg/kg, second assay): 36.30; NK- CD3- cell subset, relative percentage, MEAN (100 mg/kg, second assay): 51.43; TCR(T) cell subset, relative percentage, MEAN (100 mg/kg, second assay): 37.50; CD4+ CD8+ cell subset, relative percentage, MEAN (200 mg/kg, first assay): 1.90; CD4+ CD8- cell subset, relative percentage, MEAN (200 mg/kg, first assay): 19.00; CD4+ CD11b+ cell subset, relative percentage, MEAN (200 mg/kg, first assay): 0.85; CD4+ CD11b- cell subset, relative percentage, MEAN (200 mg/kg, first assay): 18.98; CD4- CD8+ cell subset, relative percentage, MEAN (200 mg/kg, first assay): 4.68; CD4- CD8- cell subset, relative percentage, MEAN (200 mg/kg, first assay): 74.40; CD4- CD11b+ cell subset, relative percentage, MEAN (200 mg/kg, first assay): 7.78; CD4- CD11b- cell subset, relative percentage, MEAN (200 mg/kg, first assay): 72.45; CD45+ CD4+ cell subset, relative percentage, MEAN (200 mg/kg, first assay): 17.45; CD45+ CD4- cell subset, relative percentage, MEAN (200 mg/kg, first assay): 57.70; CD45+ CD8+ cell subset, relative percentage, MEAN (200 mg/kg, first assay): 6.15; CD45+ CD8- cell subset, relative percentage, MEAN (200 mg/kg, first assay): 64.30; CD45- CD4+ cell subset, relative percentage, MEAN (200 mg/kg, first assay): 3.48; CD45- CD4- cell subset, relative percentage, MEAN (200 mg/kg, first assay): 21.35; CD45- CD8- cell subset, relative percentage, MEAN (200 mg/kg, first assay): 29.08; CD45- CDE8+ cell subset, relative percentage, MEAN (200 mg/kg, first assay): 0.48; Ly5(B) cell subset, relative percentage, MEAN (200 mg/kg, first assay): 65.60; NK+ CD3+ cell subset, relative percentage, MEAN (200 mg/kg, first assay): 1.93; NK+ CD3- cell subset, relative percentage, MEAN (200 mg/kg, first assay): 5.73; NK- CD3+ cell subset, relative percentage, MEAN (200 mg/kg, first assay): 33.03; NK- CD3- cell subset, relative percentage, MEAN (200 mg/kg, first assay): 59.33; TCR(T) cell subset, relative percentage, MEAN (200 mg/kg, first assay): 32.18; CD4+ CD8+ cell subset, relative percentage, MEAN (200 mg/kg, second assay): 0.30; CD4+ CD8- cell subset, relative percentage, MEAN (200 mg/kg, second assay): 23.13; CD4+ CD11b+ cell subset, relative percentage, MEAN (200 mg/kg, second assay): 0.13; CD4+ CD11b- cell subset, relative percentage, MEAN (200 mg/kg, second assay): 15.40; CD4- CD8+ cell subset, relative percentage, MEAN (200 mg/kg, second assay): 7.58; CD4- CD8- cell subset, relative percentage, MEAN (200 mg/kg, second assay): 69.03; CD4- CD11b+ cell subset, relative percentage, MEAN (200 mg/kg, second assay): 5.20; CD4- CD11b- cell subset, relative percentage, MEAN (200 mg/kg, second assay): 79.30; CD45+ CD4+ cell subset, relative percentage, MEAN (200 mg/kg, second assay): 20.85; CD45+ CD4- cell subset, relative percentage, MEAN (200 mg/kg, second assay): 71.95; CD45+ CD8+ cell subset, relative percentage, MEAN (200 mg/kg, second assay): 7.83; CD45+ CD8- cell subset, relative percentage, MEAN (200 mg/kg, second assay): 85.60; CD45- CD4+ cell subset, relative percentage, MEAN (200 mg/kg, second assay): 2.23; CD45- CD4- cell subset, relative percentage, MEAN (200 mg/kg, second assay): 5.00; CD45- CD8+ cell subset, relative percentage, MEAN (200 mg/kg, second assay): 0.05; CD45- CD8- cell subset, relative percentage, MEAN (200 mg/kg, second assay): 6.53; Ly5(B) cell subset, relative percentage, MEAN (200 mg/kg, second assay): 65.63; NK+ CD3+ cell subset, relative percentage, MEAN (200 mg/kg, second assay): 2.90; NK+ CD3- cell subset, relative percentage, MEAN (200 mg/kg, second assay): 6.83; NK- CD3+ cell subset, relative percentage, MEAN (200 mg/kg, second assay): 32.30; NK- CD3- cell subset, relative percentage, MEAN (200 mg/kg, second assay): 58.03; TCR(T) cell subset, relative percentage, MEAN (200 mg/kg, second assay): 35.80; CD4- CD8-, figure printed with the significant increase of B cells (all tested doses): 73%; Ly5, figure printed with the significant increase of B cells (all tested doses): 80%; change of B cells (in words) (all tested doses): significant increase
